Results on 17 molecules are retold here after patent publication US6303638A, “Substituted pyridines as modulators of the mammalian neuronal nicotinic acetylcholine receptor” (The Regents of the University of California, priority 1999, dated 2001).

Several values for one entry are separate records, joined by “and”; a condition that tells them apart may be missing. Equal entries are not always repeated.

The subject of one data set is insect versus the mammalian nAChR.
Test: not given
As to conditions: Kagabu et al. (1997); Chao et al. (1997); cited from earlier work.
For `O=[N+]([O-])NC1=NCCN1Cc1ccc(Cl)nc1` [imidacloprid], the “selectivity insect versus mammalian nAChR” value was “acts selectively at the insect versus the mammalian nAChR”.
Take `N=C1NCCN1Cc1ccc(Cl)nc1` [1-[(6-chloro-3-pyridinyl)methyl]-2-imidazolidine]: the “selectivity insect versus mammalian nAChR” value is “selective for the mammalian versus the insect nAChR”.

The subject of a further data set is humans.
Test: not given
To be noted: taken orally; cited from earlier work.
In the case of `CN1CCC[C@H]1c1cccnc1` [nicotine], the fatal oral dose was 250 to 350 mg.

The subject of a further data set is humans.
Test: not given
As to conditions: administered into the human blood stream, even in relatively small amounts; cited from earlier work.
On to `CN1CCC[C@H]1c1cccnc1` [nicotine], for which the “central and peripheral effects of nicotine” value was “fever, increased heart rate, trembling, nausea, increased blood pressure and convulsions”.

For another data set, the target named is T1, α4β2 nAChR (Rattus norvegicus, UniProt P09483+P12390).
T1 construct: made in house; host or cells: Sf9 insect cells infected with each recombinant baculovirus stock; membrane preparation
T1 sequence (P09483 31-630): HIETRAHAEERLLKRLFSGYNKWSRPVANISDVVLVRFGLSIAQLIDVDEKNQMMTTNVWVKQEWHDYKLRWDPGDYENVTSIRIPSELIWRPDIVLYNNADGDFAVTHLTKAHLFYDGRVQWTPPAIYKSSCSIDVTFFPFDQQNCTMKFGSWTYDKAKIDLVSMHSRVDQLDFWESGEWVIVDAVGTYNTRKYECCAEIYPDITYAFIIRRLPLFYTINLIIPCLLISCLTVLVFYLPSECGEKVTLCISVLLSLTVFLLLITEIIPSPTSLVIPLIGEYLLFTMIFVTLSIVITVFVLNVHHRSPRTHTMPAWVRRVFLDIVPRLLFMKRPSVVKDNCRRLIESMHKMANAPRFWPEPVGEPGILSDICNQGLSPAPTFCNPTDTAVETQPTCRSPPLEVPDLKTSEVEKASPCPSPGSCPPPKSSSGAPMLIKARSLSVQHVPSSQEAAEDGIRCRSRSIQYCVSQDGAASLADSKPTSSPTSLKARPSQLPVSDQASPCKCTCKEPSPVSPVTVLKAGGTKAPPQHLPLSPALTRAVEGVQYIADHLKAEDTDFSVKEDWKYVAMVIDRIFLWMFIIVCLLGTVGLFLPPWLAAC
T1 sequence (P12390 25-500): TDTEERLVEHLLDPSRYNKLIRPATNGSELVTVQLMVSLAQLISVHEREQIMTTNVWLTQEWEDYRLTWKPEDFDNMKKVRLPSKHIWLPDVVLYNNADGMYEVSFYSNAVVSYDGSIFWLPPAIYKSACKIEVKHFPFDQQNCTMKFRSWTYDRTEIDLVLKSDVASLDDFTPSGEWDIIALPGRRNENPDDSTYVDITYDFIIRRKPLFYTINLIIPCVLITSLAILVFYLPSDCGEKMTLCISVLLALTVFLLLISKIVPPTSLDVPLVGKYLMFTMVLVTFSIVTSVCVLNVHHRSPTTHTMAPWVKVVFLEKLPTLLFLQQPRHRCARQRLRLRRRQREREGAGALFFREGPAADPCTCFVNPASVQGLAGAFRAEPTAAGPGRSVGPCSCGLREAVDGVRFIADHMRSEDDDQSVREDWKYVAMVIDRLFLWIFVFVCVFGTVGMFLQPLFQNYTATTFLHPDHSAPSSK
Description: Inhibition of [3H](-)-nicotine binding to recombinant α4β2 nAChR.
Conditions: not given
Here is the method: Representative compounds of the invention were investigated by way of the experimental protocol described below.
Production of recombinant α4β2 nAChR:
Recombinant baculovirus stocks containing inserts for the rat α4 and β2 nAChR subunits were independently amplified as described by Wang et al. (1996) J. Neurosci. Res. 44:350-354. Production of the α4β2 nAChR was achieved by infection of Sf9 insect cells with each recombinant viral stock. Cells were harvested 48-72 h post infection by centrifugation for 10 min at 100 g, then washed in a phosphate-bufferedsaline, and homogenized in a small volume of buffer (20 mM Tris-HCl, pH 7.4, 118 mM NaCl, […], 2.5 mM CaCl2, 1.2 mM MgSO4, and 1.0 mM EDTA), followed by centrifugation for 10 min at 300 g. The final step was centrifugation of the supernatant at 37000 g. The membrane pellet was resuspended in buffer and adjusted to 20 mg of total protein per 100 mL. These nAChR preparations were used immediately for binding assays or stored as single experiment aliquots at -80° C.
Reactions were terminated by addition of 3 mL ice-cold 0.9% NaCl followed by rapid vacuum filtration through filtermat B glass fiber filters and two 3-mL washes on the filter. Filters were pre-soaked at least 60 min in 0.1% w/v polyethyleneimine to reduce non-specific binding. […] The concentration of test compounds for 50% inhibition (IC50) was determined by iterative non-linear least-squares regression using the SigmaPlot program (Jandel Scientific Software, San Rafael, Calif.). The data reported are means±standard deviations with four determinations or are individual values for two determinations.
Regarding `N=C1NCCCN1Cc1ccc(Cl)nc1` [Compound 1, 1-(6-Chloro-3-pyridinyl)methyl-2-iminotetrahydropyrimidine], the IC50 was 58 nM.

The data set is the same for the next values; noted with them: 1 nM [3H]nicotine, 30 min, 22° C., Sf9 cell membranes; individual values for two determinations; read-out: Inhibition of [3H](-)-nicotine binding to α4β2 nAChR IC50 (individual values for two determinations).
`CC[N+](CC)(CC)Cc1ccc(Cl)nc1` [Compound 11, 1-(6-Chloro-3-pyridinyl)methyl-1,1,1-triethylammonium chloride]: the IC50 is 2400 nM and 3700 nM.
Still for that read-out and setting: the figure for `C[N+](C)(C)Cc1ccc(Cl)nc1` [Compound 10, 1-(6-Chloro-3-pyridinyl)methyl-1,1,1-trimethylammonium chloride] is 16 nM and 20 nM; for `N=C1NCCCN1Cc1ccc(Cl)nc1` [Compound 1, 1-(6-Chloro-3-pyridinyl)methyl-2-iminotetrahydropyrimidine] it is 63 nM.

Staying with this data set, now noted: 1 nM [3H]nicotine, 30 min, 22° C., Sf9 cell membranes; means ± standard deviations, four determinations; read-out: Inhibition of [3H](-)-nicotine binding to α4β2 nAChR IC50.
On to `N=C1SCCN1Cc1ccc(Cl)nc1` [Compound 3, 1-(^6 -Chloro-3-pyridinyl)methyl-2-iminothiazolidine], for which the IC50 was found to be 2.3 ± 0.3 nM.
Turning to `N=C1CCCCN1Cc1ccc(Cl)nc1` [Compound 6, 1-[(6-Chloro-3-pyridinyl)methyl]-2-iminopiperidine], the IC50 is 11 ± 5 nM.
The same measure, in the same setting: as for `Clc1ccc(CN2CCCC2)cn1` [Compound 13, 1-(^6 -Chloro-3-pyridinyl)methylpyrrolidine], the figure is 8.8 ± 2.8 nM; as for `Clc1ccc(CN2CCC2)cn1` [Compound 12, 1-(6-Chloro-3-pyridinyl)methylazetidine], 16 ± 14 nM; as for `N=c1[nH]ccn1Cc1ccc(Cl)nc1` [Compound 8, 1-[(6-Chloro-3-pyridinyl)methyl]-2-iminoimidazole], 23 ± 9 nM.
Take `N=C1NCCCCN1Cc1ccc(Cl)nc1` [Compound 2, 1-[(6-Chloro-3-pyridinyl)methyl]-2-iminotetrahydrodiazepine]: the IC50 amounted to 2.8 ± 1 nM.
On the same count and under the same terms, the figure for `N=C1SCCCN1Cc1ccc(Cl)nc1` [Compound 4, 1-[(6-Chloro-3-pyridinyl)methyl]-2-iminotetrahydrothiazine] is 14 ± 4 nM; for `Clc1ccc(CN2CCCCC2)cn1` [Compound 14, 1-(^6 -Chloro-3-pyridinyl)methylpiperidine] it is 14 ± 3 nM; for `N=C1OCCN1Cc1ccc(Cl)nc1` [Compound 7, 1-[(6-Chloro-3-pyridinyl)methyl]-2-imino-1,3-oxazolidine] it is 7.2 ± 2 nM.
The same measure, in the same setting: the figure for `N=c1sccn1Cc1ccc(Cl)nc1` [Compound 9, 1-(6-Chloro-3-pyridinyl)methyl-2-iminothiazole] is 0.91 ± 0.4 nM; for `N=C1CCCN1Cc1ccc(Cl)nc1` [Compound 5, 1-(6-Chloro-3-pyridinyl)methyl-2-iminopyrrolidine] it is 3.5 ± 0.7 nM.

A word on the IC50: it is the concentration that gives 50% inhibition.
